Experimental data as given in US10738275B2, “Paenibacillus sp. strain, cultivation method and use of the same” (BRIGHT DAIRY & FOOD CO., LTD, priority 2016, dated 2020).

Tests used:
[1] = tested on: All bacteria; experiment: in-vitro culture of infant fecal flora, PCR-intestinal microarray detection; type: cell-based, infants' fecal flora; details: 0.4% (w/v) added, infant fecal flora in SIEM, anaerobic, 8 hours, 37° C.; blank control defined as 0
Description: (§1) The standard culture solution of fecal flora is prepared in accordance with the method of Minekus et al (Models of the gastrointestinal tract to study microbial interactions Original Research Article Biology of Growing Animals, 2005, 2:142-154).
(2) Certain amount of standard ileum efflux culture medium (SIEM, with 0.047 g/L pectin, 0.047 g/L xyloglucan, 0.047 g/L arabinogalactan, 0.047 g/L amylose, 0.392 g/L starch, 24.0 g/L casein, 17.0 g/L Tween 80, 24.0 g/L bacto peptone, 0.4 g/L oxgall, and 0.2 g/L cysteine) is added into a 96-well microtitration plate. Then, the 0.1% of the standard culture solution of fecal flora is added. The percentage refers to the volume percentage of the standard ileum efflux culture medium. Then, 0.4% of the purified extracellular polysaccharide (“BD3526 extracellular polysaccharide” for short) obtained in Example 11 and 0.4% of the commercialized fructooligosaccharide (FOS for short) are added into different wells among the 96 wells respectively. The final volume of liquid in each well is 1.5 mL. Meanwhile, the blank control is arranged. They are anaerobically cultured for 8 hours under 37° C. The percentage refers to the mass-volume percentage of the final volume of the liquid in a well of the 96-well microtitration plate. […]

[2] = tested on: All bifidobacteria; experiment: as above; type: cell-based, bifidobacteria in infants' fecal flora; details: 0.4% (w/v) added, 8 hours, 37° C.; for The increased log (ORF/mL) value of the flora in samples with respect to the blank control, All bifidobacteria: infant fecal flora in SIEM, anaerobic, blank control defined as 0
Description: as §1
(§2) (2) Certain amount of standard ileum efflux culture medium (SIEM, with 0.047 g/L pectin, 0.047 g/L xyloglucan, 0.047 g/L arabinogalactan, 0.047 g/L amylose, 0.392 g/L starch, 24.0 g/L casein, 17.0 g/L Tween 80, 24.0 g/L bacto peptone, 0.4 g/L oxgall, and 0.2 g/L cysteine) is added into a 96-well microtitration plate. Then, the 0.1% of the standard culture solution of fecal flora is added. The percentage refers to the volume percentage of the standard ileum efflux culture medium. Then, 0.4% of the purified extracellular polysaccharide (“BD3526 extracellular polysaccharide” for short) obtained in Example 11 and 0.4% of the commercialized fructooligosaccharide (FOS for short) are added into different wells among the 96 wells respectively. The final volume of liquid in each well is 1.5 mL. Meanwhile, the blank control is arranged. They are anaerobically cultured for 8 hours under 37° C. The percentage refers to the mass-volume percentage of the final volume of the liquid in a well of the 96-well microtitration plate.
(§3) (3) Once the cultivation is completed, the fermentation broth is mixed with 250 μL of lysis buffer, […], of zirconium bead liquid (0.1 mm) and 200 μL of phenol solution. Then they are homogenized on the bead beater (BIO SPEC Inc. U.S.) for twice (2 minutes for each time). The DNA is extracted with DNA Kit (TIANGEN BIOTECH CO., LTD). Then, PCR-intestinal microarray detection method (SALAZAR N, GUEIMONDE M, HERNANDEZ-BARRANCO A M, et al. Exopolysaccharides produced by intestinal Bifidobacterium strains act as fermentable substrates for human intestinal bacteria. Applied and environmental microbiology, 2008, 74(15): 4737-45.) is used to analyze the number of floras in samples with respect to that of the blank control (standard solution of fecal flora cultured without adding polysaccharide).

[3] = tested on: B. Longum; experiment: as above; type: cell-based; details: 0.4% (w/v) added, infant fecal flora in SIEM, anaerobic, 8 hours, 37° C.; blank control defined as 0
Description: as §1, §2, §3

[4] = tested on: B. breve; experiment: as above; type: cell-based; details: 0.4% (w/v) added, infant fecal flora in SIEM, anaerobic, 8 hours, 37° C.; blank control defined as 0
Description: as §1, §2, §3

[5] = tested on: B. infantis; experiment: as above; type: cell-based; details: 0.4% (w/v) added, infant fecal flora in SIEM, anaerobic, 8 hours, 37° C.; blank control defined as 0
Description: as §1, §2, §3

[6] = tested on: human intestinal flora; experiment: in-vitro culture of adult fecal flora, PCR-DGGE of V3 area for total bacteria; type: cell-based; details: 0.4% added, faeces of healthy adults, anaerobic, 24 hours, 37° C.
Description: (1) The faeces of 30 healthy adults (male or female, with the age range from 23 to 25, excluding those who have intestinal diseases or taking antibiotic drugs recently). They are dissolved in pH7.3-phosphate buffer (8 g/L-NaCl, 0.2 g/L-KCl, 1.15 g/L-NaHPO4, and 0.2 g/L-KH2PO4) and mixed uniformly. It is added into the culture system at a volume ratio of 1:10. Then, 0.4% of the purified extracellular polysaccharide (BD3526EPS for short) obtained in Embodiment 11 and 0.4% of the commercialized fructooligosaccharide (FOS for short) are added into the culture system respectively. Meanwhile, the blank control is arranged. They are anaerobically cultured for 24 hours under 37° C. The percentages refer to the mass-volume percentages of the culture system.
(2) Once the culture is completed, the phenol-chloroform method (ERCOLINI D, HILL P J, DODD C E. Bacterial community structure and location in Stilton cheese. Applied and environmental microbiology, 2003, 69(6): 3540-8.) is used to extract the DNA of the cultures and fecal flora. […]

| Substance | The increased log (ORF/mL) value of the flora in samples with respect to the blank control, All bacteria [1] | The increased log (ORF/mL) value of the flora in samples with respect to the blank control, All bifidobacteria [2] | The increased log (ORF/mL) value of the flora in samples with respect to the blank control, B. Longum [3] | The increased log (ORF/mL) value of the flora in samples with respect to the blank control, B. breve [4] | The increased log (ORF/mL) value of the flora in samples with respect to the blank control, B. infantis [5] | proliferation of the bifidobacteria in infants' fecal flora compared with the blank control group (FIG. 11), in words [2] | brightness of PCR-DGGE stripes (FIG. 12), proliferation of bacteria in human intestinal flora, in words [6] |
| --- | --- | --- | --- | --- | --- | --- | --- |
| fructooligosaccharide [FOS, reference compound] | 0.12 log (ORF/mL) | 1.07 log (ORF/mL) | 0.37 log (ORF/mL) | 1.18 log (ORF/mL) | −0.121 log (ORF/mL) |  |  |
| levan [BD3526 extracellular polysaccharide] | 0.448 log (ORF/mL) | 0.74 log (ORF/mL) | 0.36 log (ORF/mL) | 0.81 log (ORF/mL) | 0.017 log (ORF/mL) | can also promote the proliferation of the bifidobacteria in infants' fecal flora | significantly brighter than those of the FOS group and the blank control group |
